Residue numbers refer to the chain shown, from its start.
Columns and labels:
FXR-RXRm heterodimer = target: T1, FXR-RXRm heterodimer (Rattus norvegicus, UniProt Q62735); assay: EcRE-TK-Luc transactivation in CV-1 cells cotransfected with FXR and RXRm; type: cell-based; conditions: for FXR transactivating activity: Example 3, FIG. 3, FXR-RXRm, 100 nM unless otherwise indicated, AGN 10 10 μM; for transactivation activity, cells cotransfected with FXR and RXRm: Example 5, FIG. 6
T1 construct: Full-length recombinant rat FXR and human RXR (or RXRm) cloned into the cloning site of plasmid pCMX; expressed in transfected cells; host or cells: CV-1 cells
T1 sequence (Q62735 1-469): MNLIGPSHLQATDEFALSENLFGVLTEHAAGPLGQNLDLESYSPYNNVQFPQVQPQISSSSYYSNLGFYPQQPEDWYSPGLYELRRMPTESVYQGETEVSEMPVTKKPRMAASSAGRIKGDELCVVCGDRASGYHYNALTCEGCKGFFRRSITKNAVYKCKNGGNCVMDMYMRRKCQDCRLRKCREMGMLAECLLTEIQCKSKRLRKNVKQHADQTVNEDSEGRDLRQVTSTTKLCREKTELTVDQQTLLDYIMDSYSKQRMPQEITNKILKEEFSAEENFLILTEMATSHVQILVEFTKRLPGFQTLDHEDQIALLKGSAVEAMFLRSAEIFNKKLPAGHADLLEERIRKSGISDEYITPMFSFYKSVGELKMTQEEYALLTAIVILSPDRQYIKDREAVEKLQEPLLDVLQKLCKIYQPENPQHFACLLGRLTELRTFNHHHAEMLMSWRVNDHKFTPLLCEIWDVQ
T1 sequence (P19793 1-462 D322P partner): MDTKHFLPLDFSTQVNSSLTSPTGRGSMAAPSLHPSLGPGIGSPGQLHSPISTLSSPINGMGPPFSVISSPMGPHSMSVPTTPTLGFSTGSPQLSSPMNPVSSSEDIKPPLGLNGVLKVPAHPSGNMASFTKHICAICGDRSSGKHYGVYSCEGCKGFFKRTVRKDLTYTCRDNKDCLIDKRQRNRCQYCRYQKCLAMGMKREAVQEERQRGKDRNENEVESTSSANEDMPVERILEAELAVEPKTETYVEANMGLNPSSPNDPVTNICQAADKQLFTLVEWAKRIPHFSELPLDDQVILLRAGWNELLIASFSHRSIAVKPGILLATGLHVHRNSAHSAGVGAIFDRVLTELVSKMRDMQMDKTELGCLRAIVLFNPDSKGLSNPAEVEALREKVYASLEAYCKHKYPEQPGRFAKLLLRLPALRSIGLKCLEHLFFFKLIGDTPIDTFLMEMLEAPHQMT
Excerpt: Because FXR is known to bind to its response element as a heterodimer with RXR, and because the heterodimer can be activated by ligands to RXR, a mutant RXRα protein (RXRm; also referred to as D322P in the Figures) was constructed containing a single point mutation (Asp322 to Pro) in the ligand binding domain of RXR. The use of FXR-RXRm heterodimers, permits unambiguous identification of modulators of FXR activity amongst test compounds.
(§1) Full-length recombinant rat FXR and human RXR (or RXRm) cloned into the cloning site of plasmid pCMX were cotransfected into CV-1 cells using the transient transfection method substantially as described above. Additionally, reporter plasmids were cotransfected with the expression plasmids as described above.
(§2) Luciferase reporter plasmids TK-Luc (described in Heyman et al., Cell 68:397 (1992), hereby incorporated by reference herein) were constructed by placing the firefly luciferase cDNA coding sequence in frame immediately downstream from the herpes virus thymidine kinase promoter (located at nucleotide residues −105 to +51) of the thymidine kinase nucleotide sequence). Six repeats of the EcRE response element, to which the DNA binding domain (DBD) of FXR binds, was also included upstream of the reporter gene. Further details are provided above.
(§3) AGN 10 has the structure: [drawing 3]
(§4) The cells were then lysed as described above, and luciferase activity was measured as an indication of the extent of heterodimer-induced FXR transactivation activity as described above Results are shown in FIG. 2.
CV-1 cells were cotransfected with mammalian expression vectors encoding full length FXR and RXRm, as well as with the luciferase reporter plasmid used in the last experiment. […] All compounds were dissolved in DMSO, except glycochenodeoxycholic acid, taurochenodeoxycholic acid, taurodeoxycholic acid and taurocholic acid, which were dissolved in phosphate buffered saline (PBS). Following exposure to the compounds, the cells were washed, lysed, and the luciferase activity measured as indicated above.
(§5) These compounds were assayed for FXR modulating activity using the transactivation assay described above. All compounds were dissolved in DMSO. As above, the reporter plasmid contained 6 copies of the ecdysone response element (EcRE) placed along with the herpes virus thymidine kinase promoter upstream of the firefly luciferase gene. The reporter plasmid was transfected into CV-1 cells, either a) alone, b) with an expression plasmid encoding full length FXR, c) with an expression plasmid encoding full length RXRα, d) with two expression plasmids encoding full length FXR and RXRα respectively, and e) with two expression plasmids encoding full length FXR and RXRm, respectively. Plasmid constructions, transfection, incubation with test compounds, and luciferase activity assays were performed as described in Example 1.

FXR-RXRα heterodimer = target: T2, FXR-RXRα heterodimer (UniProt P19793+Q62735); assay: EcRE-TK-Luc transactivation in CV-1 cells cotransfected with FXR and RXR; type: cell-based, rat; conditions: for luciferase activity response, cells cotransfected with FXR and RXRα: Example 5, FIG. 6; for FXR activity as stated for panel compounds: Example 5 panel description, JH III 50 μM
T2 construct: Full-length recombinant rat FXR and human RXR (or RXRm) cloned into the cloning site of plasmid pCMX; expressed in transfected cells; host or cells: CV-1 cells
T2 sequence (Q62735 1-469): T1 sequence (Q62735 1-469)
T2 sequence (P19793 1-462): T1 sequence (P19793 1-462 D322P partner) with P322D
Excerpt: as §1, §2, §3, §4
Transient cotransfection of full length rat FXR, human RXR and the luciferase reporter plasmid was performed as above. A set of cotransfectant CV-1 cells was incubated in 1, 2, 10, and 20 μM AGN 10. Separate sets of cotransformants were given 1, 10, 20, 100, and 200 μM of either CDCA, DCA or LCA. All compounds were dissolved in DMSO. All transformant cells were permitted to incubate for approximately 44 hours with the indicated compound, then the amount of transactivation activity was measured using the luciferase assay, as indicated above.
as §5

FXR-RXRα complex = target: T3, FXR-RXRα complex (UniProt P19793+Q62735); conditions: Forman et al., Cell 81:687-693 (1995); cited from earlier work
T3 sequence (Q62735 1-469): T1 sequence (Q62735 1-469)
T3 sequence (P19793 1-462): T1 sequence (P19793 1-462 D322P partner) with P322D

FXR or RXR alone = conditions: Forman et al., Cell 81:687-693 (1995); cited from earlier work
[1] = Example 2, FIG. 2, ~44 hours, AGN 10 5-10 μM, LG 268 100 nM, bovine bile extract

Compound: C[C@H](CCC(=O)O)[C@H]1CC[C@H]2[C@@H]3C(=O)C[C@@H]4CC(=O)CC[C@]4(C)[C@H]3CC[C@]12C [3-7-diketolithocholic acid, 3,7-diketolithocholic acid]
- FXR transactivating activity (FXR-RXRm heterodimer; ~44 hours): measurable FXR transactivating activity

Compound: C[C@H](CCC(=O)O)[C@H]1CC[C@H]2[C@@H]3C(=O)C[C@@H]4C[C@H](O)CC[C@]4(C)[C@H]3CC[C@]12C [7-ketolithocholic acid]
- FXR transactivating activity (FXR-RXRm heterodimer; ~44 hours): measurable FXR transactivating activity

Compound: CC1(C)CCC(C)(C)c2cc(/C(=C/c3ccc(C(=O)C(=O)O)cc3)[Si](C)(C)C)ccc21 [AGN 10]
- FXR-mediated transactivation (luciferase activity), FXR-RXRm cotransfected cells (FXR-RXRm heterodimer; [1]): almost as much activity
- FXR transactivating activity (FXR-RXRm heterodimer; ~44 hours): measurable FXR transactivating activity
- transactivation activity, cells cotransfected with FXR and RXRm (FXR-RXRm heterodimer): significant levels of transctivation activity
- FXR ligand classification from the data (FXR-RXRm heterodimer; Example 5, conclusion): FXR agonists
- FXR-mediated transactivation (luciferase activity), FXR-RXR cotransfected cells (FXR-RXRα heterodimer; [1]): almost as much activity
- concentration at which FXR agonist activity is at a maximum (FXR-RXRα heterodimer; Example 4, FIG. 4, rat FXR, human RXR, ~44 hours): 10 µM
- luciferase activity response, cells cotransfected with FXR and RXRα (FXR-RXRα heterodimer): highest activity response

Compound: CC1(C)CCC(C)(C)c2cc(C(=O)Nc3ccc(C(=O)O)cc3)ccc21 [Am 580]
- FXR activity as stated for panel compounds (FXR-RXRα heterodimer): does not have FXR activity

Compound: C/C(=C\c1ccc(C(=O)O)cc1)c1ccc2c(c1)C(C)(C)CCC2(C)C [TTNPB]
- transactivation activity, cells cotransfected with FXR and RXRm (FXR-RXRm heterodimer): significant levels of transctivation activity
- luciferase activity response, cells cotransfected with FXR and RXRα (FXR-RXRα heterodimer): highest activity response
- FXR activity as stated for panel compounds (FXR-RXRα heterodimer): has FXR activity

Compound: CC(C)CCC[C@@H](C)[C@H]1CC[C@H]2[C@@H]3CC=C4C[C@@H](O)CC[C@]4(C)[C@H]3CC[C@]12C [cholesterol]
- activation of the FXR-RXR complex (FXR-RXRα complex): did not activate

Compound: CC(C)=CCCC(C)=CCCC(C)=CC=O [farnesal]
- activation of the FXR-RXR complex (FXR-RXRα complex): somewhat less strongly

Compound: CC(C)=CCCC(C)=CCCC(C)=CC(=O)O [farnesoic acid]
- activation of the FXR-RXR complex (FXR-RXRα complex): somewhat less strongly

Compound: CC(C)=CCC/C(C)=C/CO [geraniol]
- activation of the FXR-RXR complex (FXR-RXRα complex): did not activate

Compound: CC(C)=CCC/C(C)=C/CC/C(C)=C/CC/C(C)=C/CO [geranylgeraniol]
- activation of the FXR-RXR complex (FXR-RXRα complex): somewhat less strongly

Compound: CC(C)=CCC/C(C)=C/CC/C(C)=C/CC/C=C(\C)CC/C=C(\C)CCC=C(C)C [squalene]
- activation of the FXR-RXR complex (FXR-RXRα complex): did not activate

Compound: juvenile hormone III
- activation of the FXR-RXR complex (FXR-RXRα complex): activated
- FXR activity as stated for panel compounds (FXR-RXRα heterodimer): an FXR agonist
- activation of FXR or RXR alone (FXR or RXR alone): does not activate

Reference: patent US6906057B1, “Methods for modulating FXR receptor activity” (Allergan, Inc., priority 1999, dated 2005)
